Measured values published in patent US20130183268A1, “DRUG COMBINATIONS WITH FLUORO-SUBSTITUTED OMEGA-CARBOXYARYL DIPHENYL UREA FOR THE TREATMENT AND PREVENTION OF DISEASES AND CONDITIONS” (BAYER HEALTHCARE LLC, priority 2010, published 2013).

Columns and labels:
[1] = Pharmacokinetics in patients after 160 mg regorafenib co-precipitate tablet; details: analyte in plasma, 160 mg regorafenib co-precipitate tablet daily, day 21, n = 9, geometric mean
[2] = target: T1, Lck-activated c-raf (Lck/c-raf) (Homo sapiens, UniProt P04049); assay: c-raf (raf-1) biochemical assay; details: in words
T1 construct: GST-c-raf (from amino acid 302 to amino acid 648) and Lck (full-length); made in house; host or cells: Sf9 insect cells (baculovirus, co-infected with Lck baculovirus)
T1 sequence (P04049 302-648): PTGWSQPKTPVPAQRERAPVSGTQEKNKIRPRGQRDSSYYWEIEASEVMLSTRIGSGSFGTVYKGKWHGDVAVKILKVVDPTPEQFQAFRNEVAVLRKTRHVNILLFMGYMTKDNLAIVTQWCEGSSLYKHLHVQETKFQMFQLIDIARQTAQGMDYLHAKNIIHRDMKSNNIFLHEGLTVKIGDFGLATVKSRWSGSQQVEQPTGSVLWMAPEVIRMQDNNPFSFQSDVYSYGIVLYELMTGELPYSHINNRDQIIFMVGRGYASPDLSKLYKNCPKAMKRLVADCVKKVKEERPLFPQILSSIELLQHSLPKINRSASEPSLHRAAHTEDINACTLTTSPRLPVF
Experimental: The c-raf biochemical assay was performed with a c-raf enzyme that was activated (phosphorylated) by Lck kinase. Lck-activated c-raf (Lck/c-raf) was produced in Sf9 insect cells by co-infecting cells with baculoviruses expressing, under the control of the polyhedrin promoter, GST-c-raf (from amino acid 302 to amino acid 648) and Lck (full-length). Both baculoviruses were used at the multiplicity of infection of 2.5 and the cells were harvested 48 h post infection.
MEK-1 protein was produced in Sf9 insect cells by infecting cells with the baculovirus expressing GST-MEK-1 (full-length) fusion protein at the multiplicity of infection of 5 and harvesting the cells 48 hours post infection. Similar purification procedure was used for GST-c-raf 302-648 and GST-MEK-1.
Transfected cells were suspended at 100 mg of wet cell biomass per mL in a buffer containing 10 mM sodium phosphate, 140 mM sodium chloride pH 7.3, 0.5% Triton X-100 and the protease inhibitor cocktail. […]
Test compounds were serially diluted in DMSO using three-fold dilutions to stock concentrations ranging typically from 50 μM to 20 nM (final concentrations in the assay range from 1 μM to 0.4 nM). […] The filters were dried in a microwave, soaked in scintillation fluid and read in a Wallac 1205 Betaplate Counter (Wallac Inc., Atlanta, Ga., U.S.A.). The results were expressed as percent inhibition.

[3] = tested on: PDGFR-beta phosphorylation in aortic smooth muscle cells; assay: pPDGFR-beta sandwich ELISA in AoSMC cells; format: cell-based; details: PDGF-BB stimulated
Experimental: 100K P3-P6 Aortic SMC were plated in each well of 12-well cluster in 1000 μL volume/well of SGM-2 using standard cell culture techniques. Next day, cells were rinsed with 1000 μL D-PBS once, then serum starved in 500 μL SBM (smooth muscle cell basal media) with 0.1% BSA overnight. Compounds were diluted at a dose range from (10 μM to 1 nM in 10-fold dilution steps in DMSO. Final DMSO concentration 0.1%). Remove old media by inversion into the sink quickly then add 100 μL of each dilution to corresponding well of cells for 1 h at 37° C. Cells were then stimulated with 10 ng/mL PDGF-BB ligand for 7 min at 37° C. The media is decanted and 150 μL of isotonic lysis buffer with protease inhibitor tablet (Complete; EDTA-free) and 0.2 mM Na vanadate is added. Cells are lysed for 15 min at 4° C. on shaker in cold room. […]
Table 2 illustrates the results of two cellular assays for raf kinase activity, which are (i) inhibition of pERK in MDA-MB231 cells, a mechanistic readout of raf kinase activity, and (ii) a proliferation assay of MDA-MB231 cells, a functional assay of raf kinase activity. In addition, Table 2 illustrates the results of PDGFR driven phosphorylation of PDGFR-beta in aortic smooth muscle cells, which is a mechanistic readout of PDGFR kinase inhibition.

SMILES: CNC(=O)c1cc(Oc2ccc(NC(=O)Nc3ccc(Cl)c(C(F)(F)F)c3)c(F)c2)ccn1 [Example 1, 4{4-[3-(4-chloro-3-trifluoromethylphenyl)-ureido]-3-fluorophenoxy}-pyridine-2-carboxylic acid methylamide]
- AUC Day 21 [1]: 61500 ng·h/mL
- Cmax Day 21 [1]: 4170 ng/mL
- inhibition of raf kinase [2]: potent inhibition
- IC50 [3]: 43.6 nM
